In patent publication US12351570B2 (MERCK PATENT GMBH, priority 2018, dated 2025):
Like-named read-outs stand apart in the source and are kept apart here.

Key:
MDA-MB-231 cells = test: Extracellular lactate production inhibition after 4 h, MDA-MB-231; conditions: Homo sapiens
SNU398 cells = test: Extracellular lactate production inhibition after 4 h, SNU398; conditions: Homo sapiens, SNU-398, read-out: IC50 (SNU-398)
Method: (§1) Extracellular Lactate Production Inhibition after 4 h
(§2) Cells were plated in growth media supplemented with 10% FBS, followed by overnight recovery at 37° C., 5% CO2. […] Plates were then moved for 4 h incubation at 37° C., 5% CO2 with subsequent 20 μl media transfer to empty 384-well transparent plates. […] Plates were short-spun and measured kinetically in absorbance mode (530 nm, 12 min measurement time with 2-minute intervals between subsequent readouts at 30° C.). Differences in the signal between T8 min and T0min were normalized to vehicle (cells w/ 0.25% DMSO) and quasi-positive (LCIS buffer w/ 0.25% DMSO) controls and plotted against logarithmically-transformed test compound concentrations with fitting the 4-parameter model in GraphPad Prism software.

MIA PaCa-2 cells = test: Extracellular lactate production inhibition after 4 h, MIA PaCa-2; conditions: Homo sapiens, MIA PaCa-2, read-out: IC50 (MiaPACa)
Method: as §1, §2

[1] = MDA-MB-231, read-out: IC50 (MDA-MB231)

SMILES	IC50 (MDA-MB-231 cells; MDA-MB-231) [µM]	IC50 (MDA-MB-231 cells; [1]) [µM]	IC50 (SNU398 cells) [µM]	IC50 (MIA PaCa-2 cells) [µM]
Cc1ccc2cccnc2c1S(=O)(=O)Nc1ccccc1C#Cc1cnc(C(=O)O)c2ccccc12 [Compound 208, 4-{2-[2-(7-methylquinoline-8-sulfonamido)phenyl]ethynyl}isoquinoline-1-carboxylic acid]	0.1 to 1	< 1	< 1	< 1
COc1ccc(S(=O)(=O)Nc2ccccc2C#Cc2ccc(C(=O)N(C)C)nc2)c2ncccc12 [Compound 217]	1 to 100	< 1	< 1	< 1
CCc1cc(C#Cc2ccccc2NS(=O)(=O)c2ccc(OC)c3cccnc23)cnc1C(=O)O [Compound 451, 3-Ethyl-5-[2-(5-methoxy-quinoline-8-sulfonylamino)-phenylethynyl]-pyridine-2-carboxylic acid]	0.01 to 0.1			

More lines, now with the values ahead:

IC50 (MDA-MB-231 cells; MDA-MB-231) [µM]	IC50 (MDA-MB-231 cells; [1]) [µM]	IC50 (SNU398 cells) [µM]	IC50 (MIA PaCa-2 cells) [µM]	SMILES
1 to 100				COc1ccc(S(C)(=O)=Nc2ccccc2C#Cc2cnc(C(=O)O)c3ccccc23)cc1 (centres unmarked) [Compound 449, 4-[2-(2-{[(4-methoxyphenyl)(methyl)oxo-λ6-sulfanylidene]amino}phenyl)ethynyl]-isoquinoline-1-carboxylic acid]
1 to 100				O=C(O)c1ccc(C#Cc2ccccc2S(=O)(=O)Nc2cccc3ccccc23)cn1 [Compound 450, 5-(2-{2-[(naphthalen-1-yl)sulfamoyl]phenyl}ethynyl)pyridine-2-carboxylic acid]
